Laboratory results taken from ChEMBL document CHEMBL1139295, “Two new cytotoxic diterpenes from the rhizomes of Hedychium spicatum” (Bioorg Med Chem Lett, 2009).
Values after ≈ are worked out from the molar mass of the structure shown. Active and inactive are the calls of the source. No cut-off for these calls is given here.

Columns and labels:
[1] = system: CHO; assay: Cytotoxicity against CHO cells; format: cell-based; details: Cricetulus griseus
[2] = system: A-431; assay: Cytotoxicity against human A431 cells; format: functional, cell-based
[3] = system: A549; assay: Cytotoxicity against human A549 cells; format: functional, cell-based
[4] = system: COLO 205; assay: Cytotoxicity against human COLO205 cells; format: functional, cell-based
[5] = system: MCF7; assay: Cytotoxicity against human MCF7 cells; format: functional, cell-based

Row | SMILES | IC50 [1] [µg/mL] | IC50 [2] [µg/mL] | IC50 [3] [µg/mL] | IC50 [4] [µg/mL] | IC50 [5] [µg/mL] | Activity [3]
1 | CC1=CC(=O)[C@H]2C(C)(C)CCC[C@]2(C)[C@@]1(O)/C=C/c1ccoc1 | 15.7 (≈ 49.9 µM) | 26.1 (≈ 83 µM) | 41.2 (≈ 131 µM) | 24 (≈ 76.4 µM) | 30.9 (≈ 98.4 µM) | –
2 | CC1=C(O)C(=O)[C@H]2C(C)(C)CCC[C@]2(C)[C@H]1/C=C/C1=CC(=O)OC1 | 7.69 (≈ 23.3 µM) | 16 (≈ 48.5 µM) | 38 (≈ 115 µM) | 12 (≈ 36.4 µM) | 21.1 (≈ 63.7 µM) | –
3 | COc1cc(O)c2c(=O)cc(-c3ccccc3)oc2c1 [TECHTOCHRYSIN] | 23.5 (≈ 87.7 µM) | 39 (≈ 145 µM) | 49.6 (≈ 185 µM) | 37.1 (≈ 138 µM) | 51 (≈ 190 µM) | –
4 | C=C1[C@@H](O)C[C@H]2C(C)(C)CCC[C@]2(C)[C@H]1C/C=C1/CCOC1=O | 21.3 (≈ 67 µM) | 31.5 (≈ 99 µM) | – | 29.8 (≈ 93.6 µM) | 33.5 (≈ 105 µM) | inactive
5 | C=C1C[C@@H](O)[C@H]2C(C)(C)CCC[C@]2(C)[C@H]1/C=C/c1ccoc1 [YUNNACORONARIN A] | 17.9 (≈ 59.5 µM) | 29 (≈ 96.6 µM) | 46.6 (≈ 155 µM) | 27.1 (≈ 90.3 µM) | 28 (≈ 93.4 µM) | –
6 | C=C1CC(=O)[C@H]2C(C)(C)CCC[C@]2(C)[C@H]1C/C=C1\CC(O)OC1=O (stereo not given in full) | 20.4 (≈ 61.2 µM) | 30.5 (≈ 91.8 µM) | – | 27.6 (≈ 82.9 µM) | 49.3 (≈ 148 µM) | inactive
7 | O=c1c(O)c(-c2ccccc2)oc2cc(O)cc(O)c12 [GALANGIN] | 27 (≈ 99.8 µM) | 39.4 (≈ 146 µM) | 54.2 (≈ 201 µM) | 33.1 (≈ 123 µM) | 53.1 (≈ 196 µM) | –
